According to PubChem BioAssay (NCI):
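Where inhibition never reached the appropriate level, the endpoint shown equals the highest concentration tested. Otherwise, values were interpolated linearly from a five-concentration, 48-hour dose response in 96-well plates. GI50 = concentration required for 50% inhibition of growth. The concentration for full growth arrest is given as TGI.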

Columns and labels:
Assay in all cases: inhibition of tumour cell growth, NCI panel, 48 h
HCT-116 colon = system: HCT-116 colon
SK-MEL-5 melanoma = system: SK-MEL-5 melanoma
MDA-MB-468 breast = system: MDA-MB-468 breast
HCT-15 colon = system: HCT-15 colon
MDA-MB-435 = system: MDA-MB-435
MDA-MB-231 breast = system: MDA-MB-231 breast
SW-620 colon = system: SW-620 colon
LOX IMVI melanoma = system: LOX IMVI melanoma
PC-3 prostate = system: PC-3 prostate
SK-MEL-28 melanoma = system: SK-MEL-28 melanoma
EKVX NSCLC = system: EKVX NSCLC
RXF 393 renal = system: RXF 393 renal
SR leukemia = system: SR leukemia
HT29 colon = system: HT29 colon
MOLT-4 leukemia = system: MOLT-4 leukemia
NCI-H460 lung = system: NCI-H460 lung
T-47D breast = system: T-47D breast
OVCAR-4 ovarian = system: OVCAR-4 ovarian
HCC-2998 colon = system: HCC-2998 colon
UO-31 renal = system: UO-31 renal
SNB-75 CNS = system: SNB-75 CNS
OVCAR-3 ovarian = system: OVCAR-3 ovarian
SF-295 CNS = system: SF-295 CNS
KM12 colon = system: KM12 colon
BT-549 breast = system: BT-549 breast
U251 CNS = system: U251 CNS
SF-268 CNS = system: SF-268 CNS
ACHN renal = system: ACHN renal
CCRF-CEM leukemia = system: CCRF-CEM leukemia
COLO 205 colon = system: COLO 205 colon
786-0 renal = system: 786-0 renal
K-562 leukemia = system: K-562 leukemia
MCF7 breast = system: MCF7 breast
MALME-3M melanoma = system: MALME-3M melanoma
NCI/ADR-RES ovarian = system: NCI/ADR-RES ovarian
UACC-257 melanoma = system: UACC-257 melanoma
HS 578T breast = system: HS 578T breast
IGROV1 ovarian = system: IGROV1 ovarian
NCI-H226 lung = system: NCI-H226 lung
OVCAR-5 ovarian = system: OVCAR-5 ovarian
NCI-H522 lung = system: NCI-H522 lung
UACC-62 melanoma = system: UACC-62 melanoma
OVCAR-8 ovarian = system: OVCAR-8 ovarian
HL-60(TB) leukemia = system: HL-60(TB) leukemia
TK-10 renal = system: TK-10 renal
A498 renal = system: A498 renal
RPMI-8226 leukemia = system: RPMI-8226 leukemia
SN12C renal = system: SN12C renal
A549 NSCLC = system: A549 NSCLC
SF-539 CNS = system: SF-539 CNS
SNB-19 CNS = system: SNB-19 CNS
M14 melanoma = system: M14 melanoma
NCI-H23 lung = system: NCI-H23 lung
DU-145 prostate = system: DU-145 prostate
HOP-62 NSCLC = system: HOP-62 NSCLC
HOP-92 NSCLC = system: HOP-92 NSCLC
SK-OV-3 ovarian = system: SK-OV-3 ovarian
SK-MEL-2 melanoma = system: SK-MEL-2 melanoma
CAKI-1 renal = system: CAKI-1 renal

Structure (SMILES): C/C(=N\N=C1/C(=O)Nc2ccc(Cl)cc21)c1ccc2c(c1)Nc1ccccc1S2
- GI50 (HCT-116 colon): 4.6 µM
- TGI (HCT-116 colon): 19 µM
- GI50 (SK-MEL-5 melanoma): 3.8 µM
- TGI (SK-MEL-5 melanoma): 14.4 µM
- GI50 (MDA-MB-468 breast): 1.8 µM
- TGI (MDA-MB-468 breast): 7.31 µM
- GI50 (HCT-15 colon): 6.61 µM
- TGI (HCT-15 colon): 24 µM
- GI50 (MDA-MB-435): 3.27 µM
- TGI (MDA-MB-435): 15.5 µM
- GI50 (MDA-MB-231 breast): 8.23 µM
- TGI (MDA-MB-231 breast): 21.9 µM
- GI50 (SW-620 colon): 5.56 µM
- TGI (SW-620 colon): 20.1 µM
- GI50 (LOX IMVI melanoma): 5.77 µM
- TGI (LOX IMVI melanoma): 18.7 µM
- GI50 (PC-3 prostate): 3.14 µM
- TGI (PC-3 prostate): 16.3 µM
- GI50 (SK-MEL-28 melanoma): 6.23 µM
- TGI (SK-MEL-28 melanoma): 22.8 µM
- GI50 (EKVX NSCLC): 4.68 µM
- TGI (EKVX NSCLC): 22.9 µM
- GI50 (RXF 393 renal): 5.05 µM
- TGI (RXF 393 renal): 19 µM
- GI50 (SR leukemia): 4.4 µM
- TGI (SR leukemia): 56.8 µM
- GI50 (HT29 colon): 4.54 µM
- TGI (HT29 colon): 17.6 µM
- GI50 (MOLT-4 leukemia): 2.71 µM
- TGI (MOLT-4 leukemia): 8.28 µM
- GI50 (NCI-H460 lung): 3.17 µM
- TGI (NCI-H460 lung): 10.3 µM
- GI50 (T-47D breast): 2.54 µM
- TGI (T-47D breast): 12.8 µM
- GI50 (OVCAR-4 ovarian): 4.67 µM
- TGI (OVCAR-4 ovarian): 22.5 µM
- GI50 (HCC-2998 colon): 7.54 µM
- TGI (HCC-2998 colon): 22.5 µM
- GI50 (UO-31 renal): 4.05 µM
- TGI (UO-31 renal): 19.6 µM
- GI50 (SNB-75 CNS): 4.28 µM
- TGI (SNB-75 CNS): 19.4 µM
- GI50 (OVCAR-3 ovarian): 10.2 µM
- TGI (OVCAR-3 ovarian): 23.4 µM
- GI50 (SF-295 CNS): 4.08 µM
- TGI (SF-295 CNS): 17 µM
- GI50 (KM12 colon): 3.51 µM
- TGI (KM12 colon): 14.1 µM
- GI50 (BT-549 breast): 3.47 µM
- TGI (BT-549 breast): 12.3 µM
- GI50 (U251 CNS): 5.62 µM
- TGI (U251 CNS): 18.4 µM
- GI50 (SF-268 CNS): 8.19 µM
- TGI (SF-268 CNS): 26.5 µM
- GI50 (ACHN renal): 3.55 µM
- TGI (ACHN renal): 14.1 µM
- GI50 (CCRF-CEM leukemia): 3.42 µM
- TGI (CCRF-CEM leukemia): 98.5 µM
- GI50 (COLO 205 colon): 4.84 µM
- TGI (COLO 205 colon): 17.2 µM
- GI50 (786-0 renal): 2.4 µM
- TGI (786-0 renal): 5.86 µM
- GI50 (K-562 leukemia): 4.14 µM
- TGI (K-562 leukemia): > 100 µM
- GI50 (MCF7 breast): 3.33 µM
- TGI (MCF7 breast): 13.5 µM
- GI50 (MALME-3M melanoma): 7.44 µM
- TGI (MALME-3M melanoma): 21.5 µM
- GI50 (NCI/ADR-RES ovarian): 4.74 µM
- TGI (NCI/ADR-RES ovarian): 24.6 µM
- GI50 (UACC-257 melanoma): 4.07 µM
- TGI (UACC-257 melanoma): 18.1 µM
- GI50 (HS 578T breast): 6.86 µM
- TGI (HS 578T breast): 41.1 µM
- GI50 (IGROV1 ovarian): 5.62 µM
- TGI (IGROV1 ovarian): 23.1 µM
- GI50 (NCI-H226 lung): 3.49 µM
- TGI (NCI-H226 lung): 19.7 µM
- GI50 (OVCAR-5 ovarian): 10.1 µM
- TGI (OVCAR-5 ovarian): 26.2 µM
- GI50 (NCI-H522 lung): 3.22 µM
- TGI (NCI-H522 lung): 15.3 µM
- GI50 (UACC-62 melanoma): 4.2 µM
- TGI (UACC-62 melanoma): 17.1 µM
- GI50 (OVCAR-8 ovarian): 4.2 µM
- TGI (OVCAR-8 ovarian): 17.9 µM
- GI50 (HL-60(TB) leukemia): 6.21 µM
- TGI (HL-60(TB) leukemia): > 100 µM
- GI50 (TK-10 renal): 7.07 µM
- TGI (TK-10 renal): 23.7 µM
- GI50 (A498 renal): 5.89 µM
- TGI (A498 renal): 18.7 µM
- GI50 (RPMI-8226 leukemia): 5.86 µM
- TGI (RPMI-8226 leukemia): 99.6 µM
- GI50 (SN12C renal): 4.47 µM
- TGI (SN12C renal): 16.8 µM
- GI50 (A549 NSCLC): 4.21 µM
- TGI (A549 NSCLC): 17.8 µM
- GI50 (SF-539 CNS): 6.83 µM
- TGI (SF-539 CNS): 19.8 µM
- GI50 (SNB-19 CNS): 11.9 µM
- TGI (SNB-19 CNS): 33.1 µM
- GI50 (M14 melanoma): 7.35 µM
- TGI (M14 melanoma): 23.3 µM
- GI50 (NCI-H23 lung): 7.3 µM
- TGI (NCI-H23 lung): 21.7 µM
- GI50 (DU-145 prostate): 4.64 µM
- TGI (DU-145 prostate): 18 µM
- GI50 (HOP-62 NSCLC): 12.5 µM
- TGI (HOP-62 NSCLC): 27.8 µM
- GI50 (HOP-92 NSCLC): 2.92 µM
- TGI (HOP-92 NSCLC): 11.3 µM
- GI50 (SK-OV-3 ovarian): 11.9 µM
- TGI (SK-OV-3 ovarian): 30.7 µM
- GI50 (SK-MEL-2 melanoma): 6.77 µM
- TGI (SK-MEL-2 melanoma): 20.8 µM
- GI50 (CAKI-1 renal): 4.42 µM
- TGI (CAKI-1 renal): 17.9 µM
